pIC50: −log10 of the molar value. Blank lines part the entries; values can stand above or below the compound they belong to.
What was measured:
[1] = target: T1, MAP kinase-activated protein kinase 5 (Homo sapiens) (UniProt Q8IW41); assay: Selectivity interaction (KinomeScan (DiscoverX)) EUB0001049a MAPKAPK5; conditions: at 1 µM
T1 sequence (whole entry): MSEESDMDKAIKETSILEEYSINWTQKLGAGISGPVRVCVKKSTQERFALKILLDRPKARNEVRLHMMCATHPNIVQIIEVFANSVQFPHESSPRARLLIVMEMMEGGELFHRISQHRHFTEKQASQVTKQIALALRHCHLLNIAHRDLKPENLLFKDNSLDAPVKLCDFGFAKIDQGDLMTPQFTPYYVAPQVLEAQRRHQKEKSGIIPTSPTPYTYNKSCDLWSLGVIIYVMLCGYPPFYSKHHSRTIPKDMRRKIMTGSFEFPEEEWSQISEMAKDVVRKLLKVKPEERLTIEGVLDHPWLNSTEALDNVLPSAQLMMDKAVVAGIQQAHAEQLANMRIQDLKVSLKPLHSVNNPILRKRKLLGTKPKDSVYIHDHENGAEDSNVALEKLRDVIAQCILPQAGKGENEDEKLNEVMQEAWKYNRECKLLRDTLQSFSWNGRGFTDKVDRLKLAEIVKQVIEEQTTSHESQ

[2] = target: T2, MAP/microtubule affinity-regulating kinase 4 (Homo sapiens) (UniProt Q96L34); assay: Selectivity interaction (Ambit KINOMEscan and KiNATiv profiling in Jurkat cells) EUB0000090b MARK4; format: cell-based; conditions: at 1 µM
T2 sequence (whole entry): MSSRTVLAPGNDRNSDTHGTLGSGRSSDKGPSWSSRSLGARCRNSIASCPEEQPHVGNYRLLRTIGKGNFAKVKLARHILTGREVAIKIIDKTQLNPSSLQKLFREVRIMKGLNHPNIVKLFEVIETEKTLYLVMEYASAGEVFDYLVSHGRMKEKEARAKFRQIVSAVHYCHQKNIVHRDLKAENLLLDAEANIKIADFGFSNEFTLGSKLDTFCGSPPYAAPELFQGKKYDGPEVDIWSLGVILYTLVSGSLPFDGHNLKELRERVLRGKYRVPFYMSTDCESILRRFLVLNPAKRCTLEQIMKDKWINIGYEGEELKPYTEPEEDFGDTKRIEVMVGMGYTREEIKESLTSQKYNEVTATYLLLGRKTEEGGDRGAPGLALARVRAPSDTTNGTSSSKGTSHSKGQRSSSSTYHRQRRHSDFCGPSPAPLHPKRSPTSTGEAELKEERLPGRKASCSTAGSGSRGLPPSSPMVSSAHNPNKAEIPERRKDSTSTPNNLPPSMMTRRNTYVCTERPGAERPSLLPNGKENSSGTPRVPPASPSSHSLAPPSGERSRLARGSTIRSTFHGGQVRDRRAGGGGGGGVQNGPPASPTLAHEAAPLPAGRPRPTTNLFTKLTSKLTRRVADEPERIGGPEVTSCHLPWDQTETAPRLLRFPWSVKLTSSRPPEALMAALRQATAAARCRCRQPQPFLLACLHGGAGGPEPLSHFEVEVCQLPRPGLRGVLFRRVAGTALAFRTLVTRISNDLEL

[3] = target: Serine/threonine-protein kinase MARK2 (Homo sapiens) (UniProt Q7KZI7); assay: Selectivity interaction (ActivX KiNativ screen (kinase selectivity in THP-1 cell lysates)) EUB0000639a MARK2; format: subcellular; conditions: lysate, at 0.2 µM
Serine/threonine-protein kinase MARK2 (Homo sapiens), sequence (Q7KZI7 whole entry): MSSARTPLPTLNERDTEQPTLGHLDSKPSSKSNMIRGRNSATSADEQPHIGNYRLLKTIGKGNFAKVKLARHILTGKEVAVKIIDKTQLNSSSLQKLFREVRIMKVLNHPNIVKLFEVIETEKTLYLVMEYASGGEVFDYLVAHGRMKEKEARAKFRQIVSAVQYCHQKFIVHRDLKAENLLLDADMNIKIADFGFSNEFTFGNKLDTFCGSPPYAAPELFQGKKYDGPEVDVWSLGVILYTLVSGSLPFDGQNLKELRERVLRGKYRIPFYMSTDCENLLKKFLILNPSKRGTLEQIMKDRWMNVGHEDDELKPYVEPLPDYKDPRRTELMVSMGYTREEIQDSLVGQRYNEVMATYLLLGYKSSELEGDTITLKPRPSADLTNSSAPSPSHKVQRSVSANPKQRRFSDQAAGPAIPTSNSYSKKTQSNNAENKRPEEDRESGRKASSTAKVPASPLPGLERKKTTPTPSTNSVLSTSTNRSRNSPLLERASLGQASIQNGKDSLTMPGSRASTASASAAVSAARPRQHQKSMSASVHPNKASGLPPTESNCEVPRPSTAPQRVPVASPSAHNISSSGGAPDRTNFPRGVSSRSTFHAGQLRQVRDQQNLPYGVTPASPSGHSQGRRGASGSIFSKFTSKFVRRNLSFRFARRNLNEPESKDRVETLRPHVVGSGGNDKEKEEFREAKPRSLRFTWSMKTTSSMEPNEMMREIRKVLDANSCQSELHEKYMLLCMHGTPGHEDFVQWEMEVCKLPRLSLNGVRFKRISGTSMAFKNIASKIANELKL

[4] = target: Serine/threonine-protein kinase 17A (Homo sapiens, UniProt Q9UEE5)
Serine/threonine-protein kinase 17A, sequence (Q9UEE5 whole entry): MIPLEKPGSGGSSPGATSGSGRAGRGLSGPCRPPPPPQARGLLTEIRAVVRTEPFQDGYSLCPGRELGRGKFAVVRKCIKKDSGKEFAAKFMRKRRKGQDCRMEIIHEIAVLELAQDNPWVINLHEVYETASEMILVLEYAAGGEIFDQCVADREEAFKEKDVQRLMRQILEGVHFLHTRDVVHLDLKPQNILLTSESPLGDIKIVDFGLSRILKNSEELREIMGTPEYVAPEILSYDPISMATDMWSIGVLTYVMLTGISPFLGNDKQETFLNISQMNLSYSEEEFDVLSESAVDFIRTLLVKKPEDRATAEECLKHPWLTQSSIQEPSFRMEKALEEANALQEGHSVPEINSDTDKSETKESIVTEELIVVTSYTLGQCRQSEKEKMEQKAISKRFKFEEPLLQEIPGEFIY

[5] = target: Protein kinase C eta type (Homo sapiens) (UniProt P24723); assay: Selectivity interaction (KinomeScan (DiscoverX)) EUB0001619a PRKCH; conditions: at 1 µM
Protein kinase C eta type (Homo sapiens), sequence (P24723 whole entry): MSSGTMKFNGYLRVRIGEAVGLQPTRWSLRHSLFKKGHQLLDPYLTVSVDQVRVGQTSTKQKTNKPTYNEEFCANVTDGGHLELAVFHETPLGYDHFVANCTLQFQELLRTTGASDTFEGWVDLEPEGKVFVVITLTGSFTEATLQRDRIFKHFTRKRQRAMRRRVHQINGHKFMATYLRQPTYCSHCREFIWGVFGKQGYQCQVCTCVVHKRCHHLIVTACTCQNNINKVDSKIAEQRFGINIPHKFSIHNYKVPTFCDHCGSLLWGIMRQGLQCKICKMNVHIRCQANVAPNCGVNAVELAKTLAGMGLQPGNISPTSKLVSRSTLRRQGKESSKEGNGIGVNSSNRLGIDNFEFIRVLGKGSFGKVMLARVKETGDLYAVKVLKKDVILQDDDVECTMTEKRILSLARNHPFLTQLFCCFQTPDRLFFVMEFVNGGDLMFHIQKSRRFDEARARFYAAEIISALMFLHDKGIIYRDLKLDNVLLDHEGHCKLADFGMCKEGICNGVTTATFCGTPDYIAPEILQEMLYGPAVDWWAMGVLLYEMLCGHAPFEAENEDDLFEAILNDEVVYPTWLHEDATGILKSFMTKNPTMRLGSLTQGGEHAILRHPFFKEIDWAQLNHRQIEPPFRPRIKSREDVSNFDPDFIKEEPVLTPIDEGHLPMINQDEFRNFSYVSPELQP

[6] = target: T3, Mitogen-activated protein kinase kinase kinase 19 (Homo sapiens) (UniProt Q56UN5); assay: Selectivity interaction (KinomeScan (DiscoverX)) EUB0000618a MAP3K19; conditions: at 10 µM
T3 sequence (whole entry): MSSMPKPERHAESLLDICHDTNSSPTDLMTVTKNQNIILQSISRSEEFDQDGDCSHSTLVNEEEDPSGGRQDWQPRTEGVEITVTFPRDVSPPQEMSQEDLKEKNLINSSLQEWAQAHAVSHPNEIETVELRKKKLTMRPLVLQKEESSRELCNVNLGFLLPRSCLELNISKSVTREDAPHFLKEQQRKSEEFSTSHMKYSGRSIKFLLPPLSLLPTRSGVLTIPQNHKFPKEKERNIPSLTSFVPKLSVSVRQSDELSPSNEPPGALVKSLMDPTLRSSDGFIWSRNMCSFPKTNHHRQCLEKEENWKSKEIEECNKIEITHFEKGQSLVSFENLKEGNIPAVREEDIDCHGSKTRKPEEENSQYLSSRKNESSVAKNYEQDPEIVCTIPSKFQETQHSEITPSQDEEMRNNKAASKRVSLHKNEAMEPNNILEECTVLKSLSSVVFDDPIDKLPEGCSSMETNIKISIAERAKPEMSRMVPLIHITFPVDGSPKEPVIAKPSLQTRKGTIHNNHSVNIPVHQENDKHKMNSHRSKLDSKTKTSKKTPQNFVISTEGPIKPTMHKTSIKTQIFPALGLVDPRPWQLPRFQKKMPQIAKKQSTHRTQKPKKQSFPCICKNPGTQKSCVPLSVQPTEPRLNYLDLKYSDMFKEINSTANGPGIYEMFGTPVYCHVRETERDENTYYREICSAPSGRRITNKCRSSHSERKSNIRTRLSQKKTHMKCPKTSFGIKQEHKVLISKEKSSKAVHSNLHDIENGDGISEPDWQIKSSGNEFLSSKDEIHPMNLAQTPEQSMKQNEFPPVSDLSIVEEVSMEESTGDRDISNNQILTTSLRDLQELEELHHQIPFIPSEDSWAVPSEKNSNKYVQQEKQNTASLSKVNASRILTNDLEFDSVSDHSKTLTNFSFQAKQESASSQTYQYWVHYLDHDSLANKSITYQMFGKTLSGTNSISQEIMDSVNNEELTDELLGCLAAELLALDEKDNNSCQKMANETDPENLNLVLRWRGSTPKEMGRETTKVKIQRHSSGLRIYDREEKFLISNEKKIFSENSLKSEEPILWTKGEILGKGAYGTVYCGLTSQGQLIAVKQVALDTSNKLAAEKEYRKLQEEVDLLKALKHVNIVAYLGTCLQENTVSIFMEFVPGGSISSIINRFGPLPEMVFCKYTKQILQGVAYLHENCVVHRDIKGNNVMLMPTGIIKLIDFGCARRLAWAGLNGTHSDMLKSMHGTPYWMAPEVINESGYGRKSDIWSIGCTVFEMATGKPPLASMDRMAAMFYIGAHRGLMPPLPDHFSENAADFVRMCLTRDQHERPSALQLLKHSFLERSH

[7] = target: RAC-alpha serine/threonine-protein kinase (Homo sapiens, UniProt P31749); assay: Selectivity interaction (KinomeScan (DiscoverX)) EUB0000607a AKT1; conditions: at 10 µM
RAC-alpha serine/threonine-protein kinase, sequence (P31749 whole entry): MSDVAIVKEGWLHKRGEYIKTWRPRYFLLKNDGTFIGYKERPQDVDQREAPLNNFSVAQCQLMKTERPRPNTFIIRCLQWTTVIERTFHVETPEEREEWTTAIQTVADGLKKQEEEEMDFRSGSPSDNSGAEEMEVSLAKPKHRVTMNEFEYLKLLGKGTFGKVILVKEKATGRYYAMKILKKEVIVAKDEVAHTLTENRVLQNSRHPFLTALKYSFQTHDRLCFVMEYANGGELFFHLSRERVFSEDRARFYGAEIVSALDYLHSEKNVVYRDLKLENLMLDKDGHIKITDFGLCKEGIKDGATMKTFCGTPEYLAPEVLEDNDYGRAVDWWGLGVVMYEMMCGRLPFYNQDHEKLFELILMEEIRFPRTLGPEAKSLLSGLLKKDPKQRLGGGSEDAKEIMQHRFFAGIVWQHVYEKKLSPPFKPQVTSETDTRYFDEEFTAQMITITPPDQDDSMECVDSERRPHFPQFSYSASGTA

[8] = target: Dual specificity tyrosine-phosphorylation-regulated kinase 1B (Homo sapiens, UniProt Q9Y463); assay: Selectivity interaction (KinomeScan (DiscoverX)) EUB0000666a DYRK1B; conditions: at 10 µM
Dual specificity tyrosine-phosphorylation-regulated kinase 1B, sequence (Q9Y463 whole entry, looked up): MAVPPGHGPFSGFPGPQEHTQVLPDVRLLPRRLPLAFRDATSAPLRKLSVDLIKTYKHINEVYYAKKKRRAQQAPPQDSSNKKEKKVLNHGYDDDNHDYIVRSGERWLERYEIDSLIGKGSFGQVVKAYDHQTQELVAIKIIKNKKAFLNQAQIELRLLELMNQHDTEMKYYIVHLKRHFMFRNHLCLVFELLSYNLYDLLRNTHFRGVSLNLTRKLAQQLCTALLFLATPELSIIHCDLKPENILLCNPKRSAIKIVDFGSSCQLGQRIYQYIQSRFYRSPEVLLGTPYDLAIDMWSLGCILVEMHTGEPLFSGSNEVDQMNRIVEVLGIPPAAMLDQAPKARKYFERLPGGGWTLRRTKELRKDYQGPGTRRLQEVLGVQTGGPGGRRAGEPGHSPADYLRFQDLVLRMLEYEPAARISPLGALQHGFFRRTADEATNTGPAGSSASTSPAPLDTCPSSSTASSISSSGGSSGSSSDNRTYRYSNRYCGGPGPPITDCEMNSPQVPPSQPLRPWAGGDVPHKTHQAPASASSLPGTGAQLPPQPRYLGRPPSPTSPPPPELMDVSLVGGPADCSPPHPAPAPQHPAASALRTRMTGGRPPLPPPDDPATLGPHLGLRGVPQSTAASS

SMILES: COc1cc(Nc2nc(C)cc(-c3cnn4nc(OC)ccc34)n2)cc(C(F)(F)F)c1
% of control [1]: 82%

SMILES: CN(C)C/C=C/C(=O)Nc1ccc(C(=O)N2CCCC(Nc3ncc(Cl)c(-c4c[nH]c5ccccc45)n3)C2)cc1 (stereo not drawn)
% of control [2]: 100%

% of inhibition [3]: 2.7%
SMILES: CC[C@@H]1[C@H](F)C(=O)N[C@@H]1COc1nccc2cc(C(N)=O)c(OC)cc12 [ZIMLOVISERTIB]

pIC50 [4]: 4.70
SMILES: CN1CCN(C(=O)c2ccc3cc2OCCOCCNc2ccn4ncc-3c4n2)CC1

SMILES: N#Cc1cccc(-c2c[nH]c3ncnc(N4CCOCC4)c23)c1
% of control [5]: 41%

SMILES: O[C@H]1CC[C@H](Nc2ncc3nc(Nc4c(F)cc(F)cc4F)n([C@H]4CCOC4)c3n2)CC1
% of control [6]: 47%

SMILES: CNC(=O)Nc1ccc(-c2nc(N3CC4CCC(C3)O4)c3cnn(C4CCC5(CC4)OCCO5)c3n2)cc1
% of control [7]: 81%

SMILES: O=C(NOC[C@H](O)CO)c1ccc(F)c(F)c1Nc1ccc(I)cc1F
% of control [8]: 98%
